Calls of active or inactive are those of the source.
Key:
[1] = target: Intestinal-type alkaline phosphatase (Homo sapiens, UniProt P09923); assay: Dose Response confirmation of uHTS hits from a small molecule inhibitors of human intestinal alkaline phosphatase via a luminescent assay. [Related pubchem assays (depositor defined):AID2544, AID2574]; format: functional
[2] = target: Induced myeloid leukemia cell differentiation protein Mcl-1 (Homo sapiens, UniProt Q07820); format: functional
Streptokinase A = target: T1, Streptokinase A (Streptococcus pyogenes serotype M1, UniProt P10520); assay: viability-normalized secreted streptokinase activity reduction – plasminogen activation absorbance, OD405, dose response (AID 1914); format: functional, Streptococcus pyogenes M1 GAS;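 further: secreted streptokinase activity via plasminogen activation per viability signal from cell pellet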
T1 sequence (P10520 whole entry): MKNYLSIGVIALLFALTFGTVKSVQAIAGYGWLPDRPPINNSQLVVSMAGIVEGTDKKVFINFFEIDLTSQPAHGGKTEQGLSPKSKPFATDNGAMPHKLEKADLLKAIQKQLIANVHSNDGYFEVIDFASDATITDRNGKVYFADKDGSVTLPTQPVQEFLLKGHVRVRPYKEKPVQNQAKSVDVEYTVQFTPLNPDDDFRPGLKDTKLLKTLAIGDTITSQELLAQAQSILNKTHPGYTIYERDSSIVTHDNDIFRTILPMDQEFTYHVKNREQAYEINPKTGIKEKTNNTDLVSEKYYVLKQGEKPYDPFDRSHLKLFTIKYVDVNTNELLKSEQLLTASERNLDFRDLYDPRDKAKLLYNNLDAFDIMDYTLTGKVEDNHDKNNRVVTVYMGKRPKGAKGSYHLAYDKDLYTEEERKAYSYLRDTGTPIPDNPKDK

Streptococcus = assay: GAS UMAA2166 growth inhibition – luminescence, BacTiterGlo, counter-screen for streptokinase expression inhibitor project, dose response (AID 1915); format: functional, organism-based;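 further: potency for reduction of bacterial viability or growth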
[3] = target: Serine/threonine-protein kinase PLK4 (Homo sapiens, UniProt O00444); format: functional;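 further: PLK4 measured as one member of a kinome-wide kinase profiling panel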
[4] = target: Tyrosine-protein kinase SYK (Homo sapiens, UniProt P43405); format: functional
[5] = target: Tyrosine-protein kinase Lck (Homo sapiens, UniProt P06239); format: functional;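 further: lck was assayed as one member of a kinase panel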
[6] = target: MAP kinase-activated protein kinase 5 (Homo sapiens, UniProt Q8IW41); format: functional;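 further: measured as one member of a kinome panel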
[7] = target: Tyrosine-protein kinase JAK3 (Homo sapiens, UniProt P52333); format: functional
[8] = target: Serine/threonine-protein kinase N2 (Homo sapiens, UniProt Q16513); format: functional
[9] = target: Serine/threonine-protein kinase TAO1 (Homo sapiens, UniProt Q7L7X3); format: functional
[10] = target: Testis-specific serine/threonine-protein kinase 1 (Homo sapiens, UniProt Q9BXA7); format: functional
[11] = target: Mitogen-activated protein kinase kinase kinase 20 (Homo sapiens, UniProt Q9NYL2); format: functional
[12] = target: Mitogen-activated protein kinase kinase kinase kinase 2 (Homo sapiens, UniProt Q12851); format: functional;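 further: measured as one member of a kinome-wide kinase panel, with MAP4K2 as the panel entry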
[13] = target: MAP kinase-activated protein kinase 3 (Homo sapiens, UniProt Q16644); format: functional;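 further: value comes from a kinome-wide profiling panel in which MAPKAPK3 is one of the panel members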
[14] = target: Protein-tyrosine kinase 6 (Homo sapiens, UniProt Q13882); format: functional
[15] = target: Vascular endothelial growth factor receptor 3 (Homo sapiens, UniProt P35916); format: functional;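 further: value from a kinome-wide profiling panel, with FLT4 as the panel member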
[16] = target: Fibroblast growth factor receptor 3 (Homo sapiens, UniProt P22607); format: functional
[17] = target: Macrophage colony-stimulating factor 1 receptor (Homo sapiens, UniProt P07333); format: functional;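 further: value comes from the Navigating the Kinome screening panel, CSF1R member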
[18] = target: Glucose-6-phosphate 1-dehydrogenase (Homo sapiens, UniProt P11413); assay: inhibition of Homo sapiens G6PD, dose series – biochemical, fluorescence, selectivity assay for P. falciparum G6PD inhibitor project, dose response (AID 504792); format: functional
Leucine aminopeptidase = target: T2, Leucine aminopeptidase (Plasmodium falciparum 3D7, UniProt Q8IL11); assay: P. falciparum M17LAP inhibitors, primary screen, biochemical, fluorogenic H-Leu-NHMec substrate, 1536-well (AID 1619); format: functional
T2 sequence (Q8IL11 whole entry): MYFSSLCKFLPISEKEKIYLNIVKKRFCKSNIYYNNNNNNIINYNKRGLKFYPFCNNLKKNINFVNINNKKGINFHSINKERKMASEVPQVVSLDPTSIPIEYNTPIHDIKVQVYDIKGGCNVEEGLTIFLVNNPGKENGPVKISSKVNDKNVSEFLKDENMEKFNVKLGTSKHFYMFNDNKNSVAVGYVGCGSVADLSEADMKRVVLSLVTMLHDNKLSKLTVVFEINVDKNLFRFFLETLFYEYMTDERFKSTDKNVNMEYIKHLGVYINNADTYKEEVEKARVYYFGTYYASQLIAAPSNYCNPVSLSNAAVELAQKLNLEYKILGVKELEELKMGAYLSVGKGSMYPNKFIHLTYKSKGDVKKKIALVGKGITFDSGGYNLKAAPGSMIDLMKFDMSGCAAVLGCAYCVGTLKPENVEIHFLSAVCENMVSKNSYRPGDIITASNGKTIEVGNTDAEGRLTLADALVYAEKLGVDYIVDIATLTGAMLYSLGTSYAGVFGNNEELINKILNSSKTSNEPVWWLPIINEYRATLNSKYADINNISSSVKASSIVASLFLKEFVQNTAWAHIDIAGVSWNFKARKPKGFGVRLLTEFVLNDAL

Chain of Serine/threonine-protein kinase N2 (Q16513 whole entry): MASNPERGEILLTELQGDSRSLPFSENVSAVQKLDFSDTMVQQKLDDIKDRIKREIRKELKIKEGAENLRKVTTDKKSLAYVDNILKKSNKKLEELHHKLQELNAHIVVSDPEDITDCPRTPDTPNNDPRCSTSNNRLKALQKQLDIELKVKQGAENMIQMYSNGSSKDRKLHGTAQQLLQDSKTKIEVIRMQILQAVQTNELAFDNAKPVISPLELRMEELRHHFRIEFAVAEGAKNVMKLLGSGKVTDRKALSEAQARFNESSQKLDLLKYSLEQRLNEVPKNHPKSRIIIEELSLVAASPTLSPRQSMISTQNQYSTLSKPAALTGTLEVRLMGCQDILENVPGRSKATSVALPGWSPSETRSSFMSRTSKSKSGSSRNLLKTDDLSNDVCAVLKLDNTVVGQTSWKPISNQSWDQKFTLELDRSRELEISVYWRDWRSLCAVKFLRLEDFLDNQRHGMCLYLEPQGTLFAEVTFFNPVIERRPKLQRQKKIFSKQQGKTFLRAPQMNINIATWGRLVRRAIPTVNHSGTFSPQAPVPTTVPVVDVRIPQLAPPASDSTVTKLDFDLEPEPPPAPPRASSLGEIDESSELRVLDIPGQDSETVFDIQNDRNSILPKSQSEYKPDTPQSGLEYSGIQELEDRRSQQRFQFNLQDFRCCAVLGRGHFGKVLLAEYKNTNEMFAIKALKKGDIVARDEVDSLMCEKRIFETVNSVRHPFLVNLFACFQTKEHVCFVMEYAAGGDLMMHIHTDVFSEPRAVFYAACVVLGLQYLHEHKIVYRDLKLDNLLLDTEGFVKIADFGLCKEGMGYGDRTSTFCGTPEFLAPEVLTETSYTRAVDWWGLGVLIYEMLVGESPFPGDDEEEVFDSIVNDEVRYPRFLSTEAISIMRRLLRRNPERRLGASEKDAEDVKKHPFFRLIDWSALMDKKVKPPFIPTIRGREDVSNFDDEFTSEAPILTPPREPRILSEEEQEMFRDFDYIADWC
Chain of Macrophage colony-stimulating factor 1 receptor (P07333 whole entry): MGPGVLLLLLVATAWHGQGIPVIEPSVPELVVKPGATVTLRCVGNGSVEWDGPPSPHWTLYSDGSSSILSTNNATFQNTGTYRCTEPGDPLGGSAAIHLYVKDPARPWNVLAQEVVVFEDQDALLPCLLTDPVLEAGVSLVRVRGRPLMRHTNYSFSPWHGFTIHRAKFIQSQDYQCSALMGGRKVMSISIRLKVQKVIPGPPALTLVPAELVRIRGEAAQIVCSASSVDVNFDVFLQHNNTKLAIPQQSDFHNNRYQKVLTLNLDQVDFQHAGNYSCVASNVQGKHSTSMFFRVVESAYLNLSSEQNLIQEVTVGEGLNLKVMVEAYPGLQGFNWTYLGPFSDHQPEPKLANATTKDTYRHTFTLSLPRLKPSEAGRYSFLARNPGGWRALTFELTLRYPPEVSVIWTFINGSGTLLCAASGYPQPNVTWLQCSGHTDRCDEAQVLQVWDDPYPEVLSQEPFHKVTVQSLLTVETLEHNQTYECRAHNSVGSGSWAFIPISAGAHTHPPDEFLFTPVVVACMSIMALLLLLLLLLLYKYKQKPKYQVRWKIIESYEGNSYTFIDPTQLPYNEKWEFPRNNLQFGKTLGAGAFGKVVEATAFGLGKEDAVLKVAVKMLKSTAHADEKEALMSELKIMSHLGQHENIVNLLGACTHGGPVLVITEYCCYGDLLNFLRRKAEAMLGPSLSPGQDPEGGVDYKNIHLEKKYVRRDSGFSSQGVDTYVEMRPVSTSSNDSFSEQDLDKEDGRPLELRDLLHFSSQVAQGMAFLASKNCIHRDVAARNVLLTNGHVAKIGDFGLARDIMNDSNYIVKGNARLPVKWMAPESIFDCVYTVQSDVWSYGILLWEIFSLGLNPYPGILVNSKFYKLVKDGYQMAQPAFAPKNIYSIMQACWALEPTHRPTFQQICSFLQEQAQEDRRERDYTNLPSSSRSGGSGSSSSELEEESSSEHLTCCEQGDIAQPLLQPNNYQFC
Chain of Protein-tyrosine kinase 6 (Q13882 whole entry): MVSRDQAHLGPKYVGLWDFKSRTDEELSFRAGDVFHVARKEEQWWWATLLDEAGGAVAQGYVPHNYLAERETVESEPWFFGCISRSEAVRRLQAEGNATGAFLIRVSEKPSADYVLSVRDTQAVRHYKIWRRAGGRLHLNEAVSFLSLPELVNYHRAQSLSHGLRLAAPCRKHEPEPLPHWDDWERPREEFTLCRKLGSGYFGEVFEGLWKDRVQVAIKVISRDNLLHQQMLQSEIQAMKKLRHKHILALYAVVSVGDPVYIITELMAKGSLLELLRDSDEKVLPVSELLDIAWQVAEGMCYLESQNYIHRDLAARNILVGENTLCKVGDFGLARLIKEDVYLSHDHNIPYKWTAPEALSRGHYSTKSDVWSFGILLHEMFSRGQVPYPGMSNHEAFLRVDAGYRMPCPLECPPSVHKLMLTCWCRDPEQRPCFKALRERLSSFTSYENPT
Chain of MAP kinase-activated protein kinase 3 (Q16644 whole entry): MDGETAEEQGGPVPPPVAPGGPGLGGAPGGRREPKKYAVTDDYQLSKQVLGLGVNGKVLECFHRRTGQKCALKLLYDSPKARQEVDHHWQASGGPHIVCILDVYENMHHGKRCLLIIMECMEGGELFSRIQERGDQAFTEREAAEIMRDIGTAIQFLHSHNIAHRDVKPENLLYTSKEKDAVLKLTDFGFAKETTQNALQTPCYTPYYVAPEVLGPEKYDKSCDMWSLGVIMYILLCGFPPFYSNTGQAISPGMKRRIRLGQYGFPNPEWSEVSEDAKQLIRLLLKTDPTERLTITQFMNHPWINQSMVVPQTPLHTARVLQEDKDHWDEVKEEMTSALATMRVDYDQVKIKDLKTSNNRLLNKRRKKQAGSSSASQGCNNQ
Chain of Mitogen-activated protein kinase kinase kinase 20 (Q9NYL2 whole entry): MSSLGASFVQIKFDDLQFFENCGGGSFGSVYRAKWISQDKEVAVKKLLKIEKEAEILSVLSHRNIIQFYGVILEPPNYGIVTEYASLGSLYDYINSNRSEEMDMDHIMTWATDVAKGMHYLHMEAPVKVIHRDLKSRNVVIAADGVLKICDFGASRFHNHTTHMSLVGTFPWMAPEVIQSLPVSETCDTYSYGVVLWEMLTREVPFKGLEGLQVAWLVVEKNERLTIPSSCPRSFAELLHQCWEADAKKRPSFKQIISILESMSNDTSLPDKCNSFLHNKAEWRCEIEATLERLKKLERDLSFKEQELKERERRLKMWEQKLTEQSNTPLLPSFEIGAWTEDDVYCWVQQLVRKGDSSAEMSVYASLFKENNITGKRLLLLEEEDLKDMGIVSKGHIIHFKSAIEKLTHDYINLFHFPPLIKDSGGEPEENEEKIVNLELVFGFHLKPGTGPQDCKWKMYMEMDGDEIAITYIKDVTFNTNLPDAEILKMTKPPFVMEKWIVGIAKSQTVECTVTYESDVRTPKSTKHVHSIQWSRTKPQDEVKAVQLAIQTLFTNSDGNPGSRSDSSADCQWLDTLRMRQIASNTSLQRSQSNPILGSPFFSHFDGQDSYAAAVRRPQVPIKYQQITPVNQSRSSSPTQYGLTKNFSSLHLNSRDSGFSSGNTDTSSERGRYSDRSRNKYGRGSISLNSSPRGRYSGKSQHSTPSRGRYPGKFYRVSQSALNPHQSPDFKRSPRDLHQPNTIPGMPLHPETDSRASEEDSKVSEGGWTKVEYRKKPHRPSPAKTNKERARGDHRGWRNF
Chain of Mitogen-activated protein kinase kinase kinase kinase 2 (Q12851 whole entry): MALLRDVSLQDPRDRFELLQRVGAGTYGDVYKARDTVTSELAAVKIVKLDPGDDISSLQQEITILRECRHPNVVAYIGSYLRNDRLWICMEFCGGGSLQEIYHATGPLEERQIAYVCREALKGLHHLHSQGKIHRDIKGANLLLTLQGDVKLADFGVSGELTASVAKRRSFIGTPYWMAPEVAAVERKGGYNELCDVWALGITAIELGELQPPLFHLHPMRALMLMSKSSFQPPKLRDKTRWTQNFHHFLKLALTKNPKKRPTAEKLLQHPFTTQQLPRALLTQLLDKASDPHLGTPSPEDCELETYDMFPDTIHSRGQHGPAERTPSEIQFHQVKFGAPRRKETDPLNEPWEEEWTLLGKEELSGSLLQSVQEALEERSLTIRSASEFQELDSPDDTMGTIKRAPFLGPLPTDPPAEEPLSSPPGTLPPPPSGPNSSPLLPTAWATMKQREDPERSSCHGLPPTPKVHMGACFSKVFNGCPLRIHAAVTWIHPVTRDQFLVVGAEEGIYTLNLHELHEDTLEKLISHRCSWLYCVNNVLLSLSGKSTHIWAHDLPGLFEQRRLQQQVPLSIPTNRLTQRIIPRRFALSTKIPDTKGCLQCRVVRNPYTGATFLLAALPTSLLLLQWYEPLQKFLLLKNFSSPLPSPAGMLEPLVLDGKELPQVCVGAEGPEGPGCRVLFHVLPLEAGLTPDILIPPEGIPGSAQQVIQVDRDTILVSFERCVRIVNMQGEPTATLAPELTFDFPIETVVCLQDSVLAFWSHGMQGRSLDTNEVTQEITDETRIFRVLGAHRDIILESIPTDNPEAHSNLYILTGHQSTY
Chain of Intestinal-type alkaline phosphatase (P09923 whole entry): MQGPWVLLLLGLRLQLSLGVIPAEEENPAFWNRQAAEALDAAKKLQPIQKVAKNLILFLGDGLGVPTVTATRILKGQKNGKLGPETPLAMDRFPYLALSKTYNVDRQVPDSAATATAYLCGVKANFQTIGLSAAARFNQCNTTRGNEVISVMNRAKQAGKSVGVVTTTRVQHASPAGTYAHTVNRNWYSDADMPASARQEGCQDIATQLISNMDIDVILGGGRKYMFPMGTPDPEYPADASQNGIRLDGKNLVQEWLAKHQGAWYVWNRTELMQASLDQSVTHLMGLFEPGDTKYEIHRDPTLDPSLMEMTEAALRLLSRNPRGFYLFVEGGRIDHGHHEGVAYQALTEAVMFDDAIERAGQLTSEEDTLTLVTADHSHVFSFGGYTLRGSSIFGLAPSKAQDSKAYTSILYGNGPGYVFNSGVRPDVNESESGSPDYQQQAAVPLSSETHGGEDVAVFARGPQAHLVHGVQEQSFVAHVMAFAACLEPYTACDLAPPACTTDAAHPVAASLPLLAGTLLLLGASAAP

In the case of `Oc1ccc(N=Nc2c(O)ccc3ccccc23)cc1`, the IC50 [1] is reported as 17700 nM (inactive).
With `O=C(O)C1Nc2c(O)cc(Cl)c([N+](=O)[O-])c2C2C=CCC12` (stereo unspecified) the IC50 [2] was > 54000 nM (active).
For `O=C1C=C(N2CCCCC2)c2ccccc2C1=O`, the EC50 (Streptokinase A) was 17800 nM (active) and the EC50 (Streptococcus) was > 50000 nM (not active).
In the case of `Cc1n[nH]c2ccc(-c3cncc(OCC(N)Cc4cccc(Cl)c4)c3)cc12` (stereo unspecified), the Ki [3] is reported as 1260 nM (active), the Ki [4] is reported as > 1580 nM (inactive) and the Ki [5] is reported as > 2510 nM (inactive). For the same compound, the Ki [6] was > 1580 nM (inactive), the Ki [7] was 794 nM (active) and the Ki [8] was 15.8 nM (active). The Ki [9] was 316 nM (active), the Ki [10] was 100 nM (active) and the Ki [11] was 7940 nM (active). The Ki [12] was 63.1 nM (active), the Ki [13] was > 10000 nM (inactive) and the Ki [14] was > 2510 nM (inactive). For the same compound, the Ki [15] was 2510 nM (active), the Ki [16] was > 2000 nM (inactive) and the Ki [17] was > 2510 nM (inactive).
For `Clc1ccc2nc(-c3ccc(Br)s3)cn2c1`, the IC50 [18] was > 80000 nM (inactive).
For `O=C1N=C(NS(=O)(=O)Cc2ccccc2)S/C1=C1\C(=O)Nc2ccccc21`, the IC50 (Leucine aminopeptidase) was 26700 nM (active).
